# Measurements as given in publication PMC9154192 (PLoS Biology, 2022).
# Like-named read-outs stand apart in the source and are kept apart here.
# Assay type: in vivo, SD rats
# Description: A subchronic toxicity study was performed for PP2S. Female and male rats were divided into a control group (0 mg/kg/day, n = 15), a low-dose group (167 mg/kg/day, n = 10), a medium-dose group (500 mg/kg/day, n = 10), and a high-dose group (1,500 mg/kg/day, n = 15), respectively. Thus, there were a total of 8 groups. The drug was administered by oral gavage at 10 mL/kg body weight daily for 4 weeks. Five animals each in the control and high-dose groups continued their treatments for 2 more weeks. Clinical symptoms were observed, and body weight was measured during the test period for a total of 6 weeks; 0.5% methyl cellulose 1,500 cP (Sigma, USA) in water for injection (JW Pharmaceutical, Korea) was used as a vehicle. Control animals were treated with only the same volume of the vehicle.
# Histopathological examination was performed while performing a 4-week repeated oral toxicity study for PP2S. Organs and tissues from all animals subjected to autopsy were removed and fixed in 10% neutral buffered formalin. Among them, testes, eyeballs and optic nerve were fixed in Davidson's fixative and then in 10% neutral buffered formalin. For organs/tissues subjected to histopathological examination, specimens were prepared according to the histopathological specimen preparation SOP. For histopathological examination, organs and tissues of all subjects in the control group and the high-dose group, and macroscopically observed subjects in the low-dose group were examined. […] In addition, all other changes observed in histopathological examination were judged to be spontaneous or accidental. Those not specifically observed for all groups by organ were marked with a 'dash' symbol. Grade 1, minimal; Grade 2, slight; Grade 3, moderate; Grade 4, severe.
# [1] = female, G4 1,500 mg/kg, recovery period, n=5
# [2] = male, G2 167 mg/kg, dosing period, n=10
# [3] = male, G3 500 mg/kg, dosing period, n=10
# [4] = male, G4 1,500 mg/kg, dosing period, n=10
# [5] = male, G4 1,500 mg/kg, recovery period, n=5
smiles,measurement,setting,value
"CCCCOc1ccc2cc(CN3C(=O)CC[C@H]3C(=O)OC)c3cc(OC)c(OC)cc3c2c1 [PP2S, Methyl (S)-1-((3-butoxy-6,7-dimethoxyphenanthren-9-yl)methyl)-5-oxopyrrolidine-2-carboxylate]","Kidney: Mineralization, medulla, Grade 1, no. of animals",[1],0
same,"Liver: Extramedullary hematopoiesis, Grade 1, no. of animals",[1],0
same,"Liver: Fatty change, sporadic/periportal, Grade 1, no. of animals",[1],2
same,"Liver: Fatty change, sporadic/periportal, Grade 2, no. of animals",[1],0
same,"Liver: Infiltrate, mononuclear cell, focal, Grade 1, no. of animals",[1],4
same,"Liver: Infiltrate, mononuclear cell, focal, Grade 2, no. of animals",[1],0
same,"Lung including bronchi: Alveolar macrophage aggregation, focal, Grade 1, no. of animals",[1],0
same,"Lung including bronchi: Infiltrate, mononuclear cell, alveolar, focal, Grade 1, no. of animals",[1],1
same,"Pituitary gland: Cyst, pars nervosa, Presence, no. of animals",[1],0
same,"Prostate: Infiltrate, inflammatory cell, interstitium, Grade 1, no. of animals",[1],0
same,"Salivary gland (parotid): Focus, hypertrophic, basophilic, focal, Grade 1, no. of animals",[1],0
same,"Spleen: Pigmentation, Grade 1, no. of animals",[1],5
same,"Submandibular lymph node: Increased, plasma cell, Grade 2, no. of animals",[1],0
same,"Thyroid gland: Ectopic thymus, Presence, no. of animals",[1],1
same,"Thyroid gland: Ultimobranchial cyst, Presence, no. of animals",[1],2
same,"Adrenal gland: Vacuolation, cortical, diffuse, Grade 1, no. of animals",[2],0
same,"Adrenal gland: Vacuolation, cortical, diffuse, Grade 2, no. of animals",[2],0
same,"Epididymis: Infiltrate, inflammatory cell, interstitum, Grade 1, no. of animals",[2],0
same,"Eye: Dysplasia, retina, focal, Grade 1, no. of animals",[2],0
same,"Harderian gland: Infiltrate, inflammatory cell, focal, Grade 1, no. of animals",[2],0
same,"Kidney: Basophilia, tubule, cortex, Grade 1, no. of animals",[2],0
same,"Kidney: Cast, hyaline, cortex, Grade 1, no. of animals",[2],0
same,"Kidney: Hydronephrosis, unilateral, Grade 3, no. of animals",[2],0
same,"Kidney: Infiltrate, inflammatory cell, interstitium, Grade 1, no. of animals",[2],0
same,"Kidney: Infiltrate, inflammatory cell, interstitium, Grade 2, no. of animals",[2],0
same,"Kidney: Mineralization, cortex, Grade 1, no. of animals",[2],0
same,"Kidney: Mineralization, corticomedullary junction, Grade 1, no. of animals",[2],0
same,"Kidney: Mineralization, medulla, Grade 1, no. of animals",[2],0
same,"Liver: Extramedullary hematopoiesis, Grade 1, no. of animals",[2],0
same,"Liver: Fatty change, sporadic/periportal, Grade 1, no. of animals",[2],0
same,"Liver: Fatty change, sporadic/periportal, Grade 2, no. of animals",[2],0
same,"Liver: Infiltrate, mononuclear cell, focal, Grade 1, no. of animals",[2],0
same,"Liver: Infiltrate, mononuclear cell, focal, Grade 2, no. of animals",[2],0
same,"Lung including bronchi: Alveolar macrophage aggregation, focal, Grade 1, no. of animals",[2],0
same,"Lung including bronchi: Infiltrate, mononuclear cell, alveolar, focal, Grade 1, no. of animals",[2],0
same,"Pituitary gland: Cyst, pars nervosa, Presence, no. of animals",[2],0
same,"Prostate: Infiltrate, inflammatory cell, interstitium, Grade 1, no. of animals",[2],0
same,"Salivary gland (parotid): Focus, hypertrophic, basophilic, focal, Grade 1, no. of animals",[2],0
same,"Spleen: Pigmentation, Grade 1, no. of animals",[2],0
same,"Submandibular lymph node: Increased, plasma cell, Grade 2, no. of animals",[2],1
same,"Thyroid gland: Ectopic thymus, Presence, no. of animals",[2],0
same,"Thyroid gland: Ultimobranchial cyst, Presence, no. of animals",[2],0
same,"Adrenal gland: Vacuolation, cortical, diffuse, Grade 1, no. of animals",[3],0
same,"Adrenal gland: Vacuolation, cortical, diffuse, Grade 2, no. of animals",[3],0
same,"Epididymis: Infiltrate, inflammatory cell, interstitum, Grade 1, no. of animals",[3],0
same,"Eye: Dysplasia, retina, focal, Grade 1, no. of animals",[3],0
same,"Harderian gland: Infiltrate, inflammatory cell, focal, Grade 1, no. of animals",[3],0
same,"Kidney: Basophilia, tubule, cortex, Grade 1, no. of animals",[3],0
same,"Kidney: Cast, hyaline, cortex, Grade 1, no. of animals",[3],0
same,"Kidney: Hydronephrosis, unilateral, Grade 3, no. of animals",[3],0
same,"Kidney: Infiltrate, inflammatory cell, interstitium, Grade 1, no. of animals",[3],0
same,"Kidney: Infiltrate, inflammatory cell, interstitium, Grade 2, no. of animals",[3],0
same,"Kidney: Mineralization, cortex, Grade 1, no. of animals",[3],0
same,"Kidney: Mineralization, corticomedullary junction, Grade 1, no. of animals",[3],0
same,"Kidney: Mineralization, medulla, Grade 1, no. of animals",[3],0
same,"Liver: Extramedullary hematopoiesis, Grade 1, no. of animals",[3],0
same,"Liver: Fatty change, sporadic/periportal, Grade 1, no. of animals",[3],0
same,"Liver: Fatty change, sporadic/periportal, Grade 2, no. of animals",[3],0
same,"Liver: Infiltrate, mononuclear cell, focal, Grade 1, no. of animals",[3],0
same,"Liver: Infiltrate, mononuclear cell, focal, Grade 2, no. of animals",[3],0
same,"Lung including bronchi: Alveolar macrophage aggregation, focal, Grade 1, no. of animals",[3],0
same,"Lung including bronchi: Infiltrate, mononuclear cell, alveolar, focal, Grade 1, no. of animals",[3],0
same,"Pituitary gland: Cyst, pars nervosa, Presence, no. of animals",[3],0
same,"Prostate: Infiltrate, inflammatory cell, interstitium, Grade 1, no. of animals",[3],0
same,"Salivary gland (parotid): Focus, hypertrophic, basophilic, focal, Grade 1, no. of animals",[3],0
same,"Spleen: Pigmentation, Grade 1, no. of animals",[3],0
same,"Submandibular lymph node: Increased, plasma cell, Grade 2, no. of animals",[3],0
same,"Thyroid gland: Ectopic thymus, Presence, no. of animals",[3],0
same,"Thyroid gland: Ultimobranchial cyst, Presence, no. of animals",[3],0
same,"Adrenal gland: Vacuolation, cortical, diffuse, Grade 1, no. of animals",[4],3
same,"Adrenal gland: Vacuolation, cortical, diffuse, Grade 2, no. of animals",[4],1
same,"Epididymis: Infiltrate, inflammatory cell, interstitum, Grade 1, no. of animals",[4],1
same,"Eye: Dysplasia, retina, focal, Grade 1, no. of animals",[4],0
same,"Harderian gland: Infiltrate, inflammatory cell, focal, Grade 1, no. of animals",[4],1
same,"Kidney: Basophilia, tubule, cortex, Grade 1, no. of animals",[4],3
same,"Kidney: Cast, hyaline, cortex, Grade 1, no. of animals",[4],1
same,"Kidney: Hydronephrosis, unilateral, Grade 3, no. of animals",[4],0
same,"Kidney: Infiltrate, inflammatory cell, interstitium, Grade 1, no. of animals",[4],7
same,"Kidney: Infiltrate, inflammatory cell, interstitium, Grade 2, no. of animals",[4],1
same,"Kidney: Mineralization, cortex, Grade 1, no. of animals",[4],0
same,"Kidney: Mineralization, corticomedullary junction, Grade 1, no. of animals",[4],0
same,"Kidney: Mineralization, medulla, Grade 1, no. of animals",[4],0
same,"Liver: Extramedullary hematopoiesis, Grade 1, no. of animals",[4],1
same,"Liver: Fatty change, sporadic/periportal, Grade 1, no. of animals",[4],4
same,"Liver: Fatty change, sporadic/periportal, Grade 2, no. of animals",[4],0
same,"Liver: Infiltrate, mononuclear cell, focal, Grade 1, no. of animals",[4],4
same,"Liver: Infiltrate, mononuclear cell, focal, Grade 2, no. of animals",[4],0
same,"Lung including bronchi: Alveolar macrophage aggregation, focal, Grade 1, no. of animals",[4],0
same,"Lung including bronchi: Infiltrate, mononuclear cell, alveolar, focal, Grade 1, no. of animals",[4],2
same,"Pituitary gland: Cyst, pars nervosa, Presence, no. of animals",[4],1
same,"Prostate: Infiltrate, inflammatory cell, interstitium, Grade 1, no. of animals",[4],2
same,"Salivary gland (parotid): Focus, hypertrophic, basophilic, focal, Grade 1, no. of animals",[4],0
same,"Spleen: Pigmentation, Grade 1, no. of animals",[4],0
same,"Submandibular lymph node: Increased, plasma cell, Grade 2, no. of animals",[4],0
same,"Thyroid gland: Ectopic thymus, Presence, no. of animals",[4],0
same,"Thyroid gland: Ultimobranchial cyst, Presence, no. of animals",[4],2
same,"Adrenal gland: Vacuolation, cortical, diffuse, Grade 1, no. of animals",[5],3
same,"Adrenal gland: Vacuolation, cortical, diffuse, Grade 2, no. of animals",[5],0
same,"Epididymis: Infiltrate, inflammatory cell, interstitum, Grade 1, no. of animals",[5],0
same,"Eye: Dysplasia, retina, focal, Grade 1, no. of animals",[5],0
same,"Harderian gland: Infiltrate, inflammatory cell, focal, Grade 1, no. of animals",[5],0
same,"Kidney: Basophilia, tubule, cortex, Grade 1, no. of animals",[5],1
same,"Kidney: Cast, hyaline, cortex, Grade 1, no. of animals",[5],3
same,"Kidney: Hydronephrosis, unilateral, Grade 3, no. of animals",[5],0
same,"Kidney: Infiltrate, inflammatory cell, interstitium, Grade 1, no. of animals",[5],0
same,"Kidney: Infiltrate, inflammatory cell, interstitium, Grade 2, no. of animals",[5],0
same,"Kidney: Mineralization, cortex, Grade 1, no. of animals",[5],0
same,"Kidney: Mineralization, corticomedullary junction, Grade 1, no. of animals",[5],0
same,"Kidney: Mineralization, medulla, Grade 1, no. of animals",[5],0
same,"Liver: Extramedullary hematopoiesis, Grade 1, no. of animals",[5],1
same,"Liver: Fatty change, sporadic/periportal, Grade 1, no. of animals",[5],2
same,"Liver: Fatty change, sporadic/periportal, Grade 2, no. of animals",[5],0
same,"Liver: Infiltrate, mononuclear cell, focal, Grade 1, no. of animals",[5],3
same,"Liver: Infiltrate, mononuclear cell, focal, Grade 2, no. of animals",[5],0
same,"Lung including bronchi: Alveolar macrophage aggregation, focal, Grade 1, no. of animals",[5],0
same,"Lung including bronchi: Infiltrate, mononuclear cell, alveolar, focal, Grade 1, no. of animals",[5],0
same,"Pituitary gland: Cyst, pars nervosa, Presence, no. of animals",[5],0
same,"Prostate: Infiltrate, inflammatory cell, interstitium, Grade 1, no. of animals",[5],1
same,"Salivary gland (parotid): Focus, hypertrophic, basophilic, focal, Grade 1, no. of animals",[5],0
same,"Spleen: Pigmentation, Grade 1, no. of animals",[5],3
same,"Submandibular lymph node: Increased, plasma cell, Grade 2, no. of animals",[5],0
same,"Thyroid gland: Ectopic thymus, Presence, no. of animals",[5],0
same,"Thyroid gland: Ultimobranchial cyst, Presence, no. of animals",[5],1
